Experimental findings from patent US20240392249A1, “HUMAN HEPATOCYTE CULTURE MEDIUM AND CONDITIONED MEDIUM OF IN VITRO CULTURED HUMAN HEPATOCYTES AND USES THEREOF” (UNIVERSITY OF SOUTHERN CALIFORNIA, priority 2021, published 2024) are described below.

In data set [1] the test system is CYP3A4. Description: CYP3A4 expression and inducibility in HH (immunoblotting). Conditions: HH cultured with DMSO2, 7-day treatment. In kind it is cell-based, human. An excerpt:
Then, and total RNA and cell lysates were subjected to immunoblotting analysis (left) and qPCR analysis (right) to determine the inducibility of indicated molecules. Graph bars represent mean±SD; *, ** and *** indicate p<0.05 and p<0.01 and p<0.001 by one-way ANOVA.
(In western blotting, separated proteins are transferred to a membrane and probed.)

Data set [2] concerns CYP2E1. In kind it is cell-based. To be noted: human, 7 days. The method, then:
FIG. 9 show the impact of DMSO on the inducibility of CYP genes. Freshly isolated HHs were cultured for 7 days with HH recovery media (dHCGM) followed by the maintenance/application medium containing DMSO or DMSO2 for another 7 days in the presence of indicated concentration of CYP3A4 inducers ([…] and carbamazepine) (left) and CYP2El inducers (ethanol and isoniazid) (right). Then, and total RNA and cell lysates were subjected to immunoblotting analysis (left) and qPCR analysis (right) to determine the inducibility of indicated molecules.

The subject of data set [3] is HH. To be noted: HH cultured with DMSO2-containing medium, only when tight-sealing apparatus is applied.
Description: Due to the high volatility of ethanol, it evaporates rapidly at a much higher rate that the rate of hepatocytes metabolizes.
The test system of data set [4] is HH. Description: Screen of organic compounds as DMSO substitution: morphology and hepatocyte marker gene expression of recovered HH. The data set is classed as cell-based, human. To be noted: substitution for DMSO, additional 7 and 14 days culture. An excerpt: Then, total cell lysates were subjected to immunoblotting analysis for the detection of indicated molecules. NT; non treatment.
Then, HH was subjected to immunofluorescent analysis for the detection of MRP2 (Arrowheads), F-actin, DAPI. The bar indicates 25 μm.
In search of the DMSO substitution, we screened numerous organic compounds. The list of chemicals (Table 3) is selected based on the shared characteristics with DMSO, such as but not limited to the molecular size, solubility to the cell culture medium, stability at the standard temperature (melting and boiling temperatures), feasibility in handling (no significant chemical hazardous concern), and the cost. […] With the highest possible concentration, recovered HH (7 days old) were cultured for additional 7 and 14 days with refreshing of the medium at a frequency of every 3-4 days. On day 14 and 21, cells were subjected to the morphological and cell fate assessment along with the functional assessment (FIGS. 7 and 8).

Data set [5] addresses T1, CYP3A4 (Homo sapiens, UniProt P08684).
T1 construct: endogenous in cells; host or cells: freshly isolated human hepatocytes (HH) in culture
Description: CYP3A4 activity in cultured HH, P450-Glo Assays. The data set is classed as in vitro ADME. To be noted: in the presence of the organic compound. As to the method: (§1) Then, cells were used for the assessment of CYP3A4 (left), and CYP2A9 (middle) activity in the presence of organic compounds (DMSO or DMSO2) using P450-Glo™ Assays (Promega). For the assessment of CYP2E1 activity (right) was assessed using Vivid™ CYP2E1 Blue Screening Kit (Thermo Fisher). Graph bars represent mean±SD; *, ** and *** indicate p<0.05 and p<0.01 and p<0.001 by one-way ANOVA; n.s, not significant; n.d., not detected.

In data set [6] the target is CYP2E1 (Homo sapiens, UniProt P05181). Description: CYP2E1 activity, Vivid CYP2E1 Blue Screening Kit. To be noted: in the presence of the organic compound. As to the method: as §1
For the assessment of CYP2E1 activity (right) was assessed using VividTM CYP2E1 Blue Screening Kit (Thermo Fisher).

A further data set relates to ADH. Description: ADH activity (NADH production rate, absorbance at 340 nm) in HH cell homogenate. The data set is classed as biochemical, human. To be noted: in the presence of the organic compound. As to the method: Hepatoma cells (Huh7 and HepG2) were used as negative controls. (B) The relative ADH activity of HH were assessed in the absence of organic compounds (NT), as well as in the presence of DMSO or DMSO2 using the same method described in (A).

Data set [7] has as its system HH. Description: Withdrawal of DMSO from recovered HH: MRP2 immunofluorescence, immunoblotting, qPCR. In kind it is cell-based, human. Conditions: after 7 days recovery, additional 4 days. An excerpt: Then, HH were subjected to (A) immunofluorescent analysis for the detection of MRP2 (Arrowheads), (B) immunoblotting and (C) qPCR analysis for the detection of indicated hepatocytes marker molecules. The bar indicates 25 μm.

The subject of data set [8] is HH. Description: Ethanol metabolism to acetate by cultured HH (Acetate Colorimetric Assay Kit). The data set is classed as cell-based. To be noted: 10 mM ethanol, 24 hours, sealing apparatus, compared with human liver. The method, then:
Then, HH were cultured with either DMSO or DMSO2 containing maintenance/application medium in the absence (0 mM) or presence of 10 mM ethanol for 24 hours. The sealing apparatus was applied throughout the course of ethanol treatment. At the end of the ethanol treatment, cell culture medium was harvested followed by the measurement of acetate concentration using Acetate Colorimetric Assay Kit (Biovision). […] The rate of acetate production was normalized by the cell number of the […] in order to assess the comparability of EtOH metabolizing capacity of HH with each given condition to that of the health human liver (right).

The target in another data set is CYP2A9 (Homo sapiens, UniProt P11712). To be noted: HH, in the presence of the organic compound. As to the method:
as §1

For data set [9], the system named is HH. Description: Role of DMSO in the cell fate recovery of freshly isolated HH. The data set is classed as cell-based, human. To be noted: 7 days. The source says: Then, HH were subjected to (A) immunofluorescent analysis for the detection of MRP2 (Arrowheads), (B) immunoblotting and (C) qPCR analysis for the detection of indicated hepatocytes marker molecules at the indicated time points.

Structures are written as SMILES.

T1 sequence (P08684 whole entry): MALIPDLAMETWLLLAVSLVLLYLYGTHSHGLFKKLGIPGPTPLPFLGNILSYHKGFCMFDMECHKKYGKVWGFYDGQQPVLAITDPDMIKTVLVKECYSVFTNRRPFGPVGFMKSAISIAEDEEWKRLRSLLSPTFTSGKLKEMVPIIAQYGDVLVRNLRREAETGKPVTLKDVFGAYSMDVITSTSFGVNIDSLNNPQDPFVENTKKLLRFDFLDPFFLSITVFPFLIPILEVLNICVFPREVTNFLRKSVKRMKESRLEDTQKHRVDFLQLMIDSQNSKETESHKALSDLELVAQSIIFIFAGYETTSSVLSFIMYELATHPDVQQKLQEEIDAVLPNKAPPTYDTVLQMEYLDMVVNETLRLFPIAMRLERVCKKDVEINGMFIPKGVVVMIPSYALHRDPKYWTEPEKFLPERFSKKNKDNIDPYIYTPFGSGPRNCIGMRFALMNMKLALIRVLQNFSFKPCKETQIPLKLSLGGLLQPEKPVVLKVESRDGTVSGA
Chain of CYP2E1 (Homo sapiens, UniProt P05181) (P05181 whole entry): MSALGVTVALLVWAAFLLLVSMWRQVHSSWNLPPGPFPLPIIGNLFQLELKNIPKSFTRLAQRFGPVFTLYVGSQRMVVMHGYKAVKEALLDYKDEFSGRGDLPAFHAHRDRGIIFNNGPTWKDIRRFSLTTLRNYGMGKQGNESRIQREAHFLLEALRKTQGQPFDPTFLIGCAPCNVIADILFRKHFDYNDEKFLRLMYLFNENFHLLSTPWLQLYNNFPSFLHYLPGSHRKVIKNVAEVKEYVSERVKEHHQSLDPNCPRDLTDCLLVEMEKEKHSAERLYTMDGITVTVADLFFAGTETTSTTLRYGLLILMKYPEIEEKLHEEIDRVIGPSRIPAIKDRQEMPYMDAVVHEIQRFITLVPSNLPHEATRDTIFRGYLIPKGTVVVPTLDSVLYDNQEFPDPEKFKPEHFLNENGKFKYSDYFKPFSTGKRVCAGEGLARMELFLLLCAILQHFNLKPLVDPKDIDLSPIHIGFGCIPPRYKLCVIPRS
Chain of CYP2A9 (P11712 whole entry): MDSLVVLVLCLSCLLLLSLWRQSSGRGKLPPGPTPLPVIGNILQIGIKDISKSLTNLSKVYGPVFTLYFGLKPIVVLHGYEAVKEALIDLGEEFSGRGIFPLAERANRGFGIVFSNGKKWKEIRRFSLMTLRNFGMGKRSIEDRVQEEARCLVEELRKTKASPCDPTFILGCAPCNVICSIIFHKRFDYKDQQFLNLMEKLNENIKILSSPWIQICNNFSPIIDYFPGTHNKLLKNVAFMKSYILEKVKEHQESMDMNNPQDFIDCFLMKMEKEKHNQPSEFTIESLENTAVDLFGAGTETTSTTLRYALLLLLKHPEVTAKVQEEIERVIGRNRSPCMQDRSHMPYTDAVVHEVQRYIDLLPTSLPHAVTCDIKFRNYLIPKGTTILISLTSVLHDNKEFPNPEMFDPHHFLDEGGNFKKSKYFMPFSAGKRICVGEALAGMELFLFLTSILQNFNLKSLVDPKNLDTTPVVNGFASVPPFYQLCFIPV

Take `NC(=O)N1c2ccccc2C=Cc2ccccc21` [Carbamazepine]: in the data set on CYP3A4 [1], the “CYP3A4 induction by inducer” value was “CYP3A4 induction in a dose dependent manner”.
Consider `NNC(=O)c1ccncc1` [Isoniazid], for which the “CYP2E1 induction by inducer” value with CYP2E1 [2] is recorded as “lack of CYP2E1 induction”.
Consider `CCO` [Ethanol], for which the “CYP2E1 induction by inducer” value with CYP2E1 [2] is given as “lack of CYP2E1 induction”. The “lipid droplet accumulation in HH” value with HH [3] is “accumulation of lipid droplet (LD)”.
As for `CS(C)(=O)=O` [DMSO2, dimethyl sulfone], in the data set on HH [4], the “maintenance of morphology and marker genes expression of recovered HH” value is “capable of maintaining the morphology and the marker genes expression at a level comparable to that of DMSO-containing medium”. In addition, the “effect on metabolic activity of CYP3A4” value at CYP3A4 [5] is on record as “substantially less than that of DMSO-containing medium”. In addition, on CYP2E1 [6], the “effect on metabolic activity of CYP2E1 / CYP2E1 pathway” value is “substantially less than that of DMSO-containing medium”.
With `[O-][S+]1CCCC1` [TMSO, Tetramethylene sulfoxide], the “maintenance of morphology and marker genes expression of recovered HH” value in the data set with HH [4] was “capable of maintaining the morphology and the marker genes expression at a level comparable to that of DMSO-containing medium”. The “effect on ADH activity / ADH pathway” value in the data set on ADH is given as “inhibition of alcohol metabolism enzymes”.
In the case of `C[S+](C)[O-]` [DMSO, dimethyl sulfoxide], the “effect on ADH activity / ADH pathway” value in the data set with ADH is on record as “inhibition of ADH activity”. On CYP3A4 [5], the “effect on metabolic activity of CYP3A4” value is “potently prohibits”. The “effect of withdrawal of DMSO on hepatocytic function and morphology” value with HH [7] is “rapid deterioration of the hepatocytic function and morphology”. Also, in the data set with HH [8], the “ethanol metabolism by HH (acetate production)” value is “inhibition of ethanol metabolism to the production of acetate”. In addition, at CYP2A9, the “effect on CYP2A9 activity” value is on record as “inhibition of DMPK enzymes”. Further, the “recovery of HH from cell injury and stress when cultured without DMSO during Phase 1” value with HH [9] is reported as “would not promote the recovery”. Also, on CYP2E1 [6], the “effect on metabolic activity of CYP2E1 / CYP2E1 pathway” value is recorded as “reciprocal changes were also seen in CYP2E1”.
